Source: PubChem BioAssay AID1996
Values after ≈ are worked out from the molar mass of the structure shown.

Conditions: buffer; pH 7.4; 200.0 µM

Row | Compound | solubility kinetic [µg/mL]
1 | CC1CN(C(=O)COC(=O)c2cc(Cl)ccc2Cl)CC(C)O1 (stereo unspecified) | > 51.9
2 | N#Cc1ccccc1NC(=S)NC(=O)c1cccs1 | 30.7 (≈ 107 µM)
3 | COc1ccccc1C(=O)C1CCCN(C(=O)c2ccco2)C1 (stereo unspecified) | > 47
4 | CSc1ncccc1C(=O)OCC(=O)c1ccc(C)s1 | 3.5 (≈ 11.4 µM)
5 | O=C(NCC1CCCN(C2Cc3ccccc3C2)C1)c1cccs1 (stereo unspecified) | 40.1 (≈ 118 µM)
6 | COc1ccc(C(=O)NCc2ccc3c(c2)CCO3)cc1 | 32.5 (≈ 115 µM)
7 | CCC1(CC)Nc2ccccc2C(=O)N1c1ccc(OC)cc1 | 16.5 (≈ 53.2 µM)
8 | O=C(CS(=O)c1ccc(F)cc1)N1CCOCC1 (stereo unspecified) | > 40.7
9 | O=C(NCC(c1ccco1)N1CCOCC1)c1ccc(F)cc1 (stereo unspecified) | > 47.8
10 | Cc1cc(C)cc(NC(=O)C(C)N2C(=O)c3ccccc3C2=O)c1 (stereo unspecified) | 14.4 (≈ 44.7 µM)
11 | Cc1ccc(N2C(=S)NC3c4ccccc4OC2(C)C3C(=O)N(C)C)cc1 (stereo unspecified) | 50.9 (≈ 133 µM)
12 | C=C(C)c1cccc(C(C)(C)NC(=O)N2CCC(C(N)=O)CC2)c1 | > 49.4
13 | COc1ccc(NC(=O)COc2ccc3c(c2)CCC3)cc1S(N)(=O)=O | 15.9 (≈ 42.2 µM)
14 | CCOC(=O)CN1C(=O)S/C(=C\c2ccc3c(c2)OCO3)C1=O | 1.8 (≈ 5.37 µM)
15 | CC(C)Oc1ccc(C(=O)Nc2cccc(S(=O)(=O)N3CCCC3)c2)cc1 | 8.5 (≈ 21.9 µM)
16 | Cl.FC(F)Sc1ccc(NC2=NCCCCC2)cc1 | 45
17 | COc1ccccc1NC(=O)NCCN1CCCCC1 | > 41.6
18 | COc1ccccc1NC(=S)NC(=O)CCc1ccccc1 | 0.7 (≈ 2.23 µM)
19 | O=C(COC(=O)c1ccc(Cl)nc1)NCCc1ccc(F)cc1 | > 50.5
20 | CC1CCCC(NC(=O)COC(=O)[C@@H](NC(=O)c2ccccc2Cl)C(C)C)C1C (stereo partly specified) | 46.1 (≈ 109 µM)
21 | COc1ccc(C(CC(=O)O)N2Cc3ccccc3C2=O)cc1OC (stereo unspecified) | > 51.2
22 | Cc1cc(C)nc(SCC(=O)NC2CCCC2)n1 | > 39.8
23 | CCOc1ccccc1Nc1ccc(C(=O)O)cc1N | 37.6 (≈ 138 µM)
24 | CCOc1ccc(N(C(=O)c2cc3ccccc3oc2=O)C2C=CS(=O)(=O)C2)cc1 (stereo unspecified) | > 63.8

Row | Compound | solubility kinetic [µg/mL]
25 | N#Cc1c(NC(=O)c2ccco2)sc2c1CCC2 | 9.4 (≈ 36.4 µM)
26 | O=C(NCc1ccccc1)N1CCOc2ccccc21 | 31.3 (≈ 117 µM)
27 | Cc1cn(CCC(=O)Nc2ccc(N3CCOCC3)cc2)c2ccccc12 | 46.7 (≈ 128 µM)
28 | Cc1cc(=O)[nH]c2ccc(S(=O)(=O)Nc3ccccc3)cc12 | 3.4 (≈ 10.8 µM)
29 | O=C(NCc1ccco1)c1ccc2nccnc2c1 | > 38
30 | CCN1CCN(Cc2cc(OC)c3c(c2)OCO3)CC1 | 33.9 (≈ 122 µM)
31 | CC(C)CC(NC(=O)C1CCC(C)CC1)C(=O)NCc1ccco1 (stereo unspecified) | 25.2 (≈ 75.3 µM)
32 | Cc1cccc(NC(=S)N2CCN(c3ccccn3)CC2)c1 | 6.7 (≈ 21.4 µM)
33 | CC12CC3CC(C)(C1)CC(C(=O)N1CCCC1)(C3)C2 | 3.9 (≈ 14.9 µM)
34 | Cc1cc(NC(=O)Cc2ccc(Br)cc2)no1 | 1.8 (≈ 6.1 µM)
35 | CC1CN(C(=S)NC(=O)c2ccccc2)CC(C)O1 (stereo unspecified) | > 41.8
36 | NS(=O)(=O)c1ccc(NC(=O)c2cc(=O)c3ccccc3o2)cc1 | 18.7 (≈ 54.3 µM)
37 | COc1ccc(N2CCN(C(=O)CN3C(=O)NC4(CCCCC4C)C3=O)CC2)cc1 (stereo unspecified) | > 62.2
38 | CCC(NC(=S)NC1CCCCC1)c1ccccc1 (stereo unspecified) | 3.8 (≈ 13.7 µM)
39 | CC(C)(C)c1ccc(C(=O)NCCC(=O)N2CCCC2)cc1 | > 45.4
40 | O=C(c1cc2cc([N+](=O)[O-])ccc2oc1=O)N1CCN(C2CCCCC2)CC1 | > 57.8
41 | COc1ccc(OC)c(NC(=O)COC(=O)C2CCCCC2)c1 | 2.9 (≈ 9.02 µM)
42 | Cn1c(C(=O)O)cc2c(=O)n3ccccc3nc21 | > 36.5
43 | COc1ccc(NC(=O)COC(=O)CCC2CCCCC2)cc1 | 19.4 (≈ 60.7 µM)
44 | O=C(O)C1CCCCC1C(=O)NCc1ccccn1 (stereo unspecified) | > 39.3
45 | Cc1onc(-c2c(F)cccc2Cl)c1C(=O)NCCO | > 44.8
46 | Cc1nc2ccc(NC(=O)C3CCCCC3)cc2s1 | 13.2 (≈ 48.1 µM)
47 | Cc1ccc(CNC(=O)CN2C(=O)NC3(CCCC3)C2=O)cc1 | 43.6 (≈ 138 µM)
48 | CC(=O)Nc1ccc(Nc2cc(C)nc3ccccc23)cc1 | 40.2 (≈ 138 µM)

Row | Compound | solubility kinetic [µg/mL]
49 | O=C(CCC1CCN(Cc2ccccc2Cl)CC1)NC1CC1 | > 48.1
50 | CCOC(=O)c1sc(NC(=O)c2ccc(=O)[nH]c2)nc1C | 7.3 (≈ 23.8 µM)
51 | CC(C)OCCCNC(=O)C1CCN(S(=O)(=O)N2CCCC2)CC1 | > 54.2
52 | CC(Sc1ccccn1)C(=O)NC1CCCC1 (stereo unspecified) | > 37.6
53 | COCCCNC(=O)C(=O)Nc1cc2c3c(c1)CCN3C(=O)CC2 | 49.4 (≈ 149 µM)
54 | Cc1cccc(CN2CCN(C(=S)Nc3ccccc3)CC2)c1 | > 48.8
55 | CN(C)NC(=S)NC1CC2CCC1C2 (stereo unspecified) | > 32
56 | COCCCNC(=O)c1c(N)n(Cc2ccco2)c2nc3ccccc3nc12 | 4.8 (≈ 12.7 µM)
57 | Cn1nccc1NS(=O)(=O)c1ccc(NC(=O)C(F)(F)F)cc1 | > 52.2
58 | Cc1nnc(NC(=O)CS(=O)(=O)Cc2ccccc2)s1 | > 46.7
59 | COC(=O)CC(NC(=O)c1cccs1)c1ccc(OC)c(OC)c1 (stereo unspecified) | > 52.4
60 | Cc1cc(C)n(CC(=O)NCc2ccccc2)c(=O)c1C#N | 43.5 (≈ 147 µM)
61 | CC(=O)c1c(C)[nH]c(C(=O)Nc2nc(C)cs2)c1C | 4.1 (≈ 14.8 µM)
62 | Cc1cc(OCCCCCn2ccnc2)cc(C)c1Cl.Cl | 23.1
63 | CSc1ccc(CNCCN2CCOCC2)cc1.Cl | > 50.9
64 | CN(CCC#N)C(=O)COC(=O)c1ccc2c(c1)C(=O)N(C1CCCCC1)C2=O | 16.1 (≈ 40.5 µM)
65 | Cc1ccccc1S(=O)(=O)Cc1ccc(C(=O)NC2CC2)o1 | > 47.9
66 | COc1ccccc1NC(=O)c1ccc(NC(=O)CN2CCCCC2)cc1.O=C(O)C(=O)O | > 68.6
67 | O=S(=O)(CC(c1ccccc1)N1CCCCC1)c1ccc(Cl)cc1 (stereo unspecified) | 4.2 (≈ 11.5 µM)
68 | O=S(=O)(Nc1cccc(CCc2ccccn2)c1)c1ccc(Cl)cc1 | 19.1 (≈ 51.2 µM)
69 | Cc1ccc(Sc2ncccc2[N+](=O)[O-])cc1 | 2.8 (≈ 11.4 µM)
70 | CCOC(=O)c1ccc(S(=O)(=O)N2CCN(C(C)=O)CC2)cc1 | > 51.1
71 | O=C(COC(=O)/C=C/c1ccc(OC(F)F)cc1)Nc1ccc2[nH]c(=O)[nH]c2c1 | 5.3 (≈ 13.1 µM)
72 | COc1ccc(NS(=O)(=O)c2cc(C(=O)NNC(=O)c3ccncc3)ccc2OC)c(OC)c1 | > 73

Row | Compound | solubility kinetic [µg/mL]
73 | O=C(O)CC(NC(=O)C12CC3CC(CC(C3)C1)C2)c1cccc([N+](=O)[O-])c1 (stereo unspecified) | > 55.9
74 | O=C(NCCc1ccccn1)c1ccc(OC(F)F)cc1 | > 43.8
75 | CCCCC(CC)C(=O)N1CCN(C(=O)c2ccco2)CC1 (stereo unspecified) | 45.4 (≈ 148 µM)
76 | c1ccc(-c2ccccc2OCCCCn2ccnc2)cc1 | 31.3 (≈ 107 µM)
77 | O=C1Nc2ccc(Cl)cc2C(=O)C1(F)c1ccccc1 (stereo unspecified) | 1.7 (≈ 5.87 µM)
78 | O=C(CNc1cccc([N+](=O)[O-])c1)NC(=O)NC1CCCCC1 | 30 (≈ 93.6 µM)
79 | COc1ccc(CN(C)C(=O)c2ccc(NS(=O)(=O)c3ccc4[nH]c(=O)[nH]c4c3)cc2)c(OC)c1OC | > 79
80 | Cc1ccc(OCC(=O)Nc2ccc(S(=O)(=O)N3CCCC3)cc2)cc1 | 0.5 (≈ 1.34 µM)
81 | O=C(Nc1cc(N2CCOCC2)ncn1)NC1(C(F)(F)F)Oc2ccc(Cl)cc2O1 (stereo unspecified) | 65.5 (≈ 147 µM)
82 | O=C(Nc1ccc(Cl)cc1)N1CCSC1=NCc1ccccc1 | 26 (≈ 75.2 µM)
83 | CCOc1ccccc1NC(=O)COC(=O)c1nc2nccc(C)n2n1 | > 53.3
84 | Cc1cc(C)nc(Nc2ccc(F)cc2)n1 | > 32.6
85 | Cc1cccc(-c2noc(CN(C)C(=O)COc3ccccc3)n2)c1 | 36.9 (≈ 109 µM)
86 | CCC(C)NC(=O)c1cn(-c2cccc(OC)c2)c(=O)c2ccccc12 (stereo unspecified) | 46.9 (≈ 134 µM)
87 | COc1ccccc1/C=C1/C(=O)ON=C1C | 31.3 (≈ 144 µM)
88 | COc1ccccc1S(=O)(=O)c1c(C)cc(C)[nH]c1=O | > 44
89 | O=C(Nc1ccccc1O)C(c1ccccc1)c1ccccc1 | 9 (≈ 29.7 µM)
90 | CCN1C(=O)c2ccc(C(=O)Nc3ccc4c(c3)OCO4)cc2C1=O | 0.5 (≈ 1.48 µM)
91 | Cc1ccc(/C=N/NC(=O)CN2CCN(Cc3ccccc3Cl)CC2)o1 | > 56.2
92 | CNC(=S)NC1CC2CCCC(C1)N2Cc1ccccc1OC (stereo unspecified) | > 50
93 | Cc1ccc(C(=O)NS(=O)(=O)c2ccc(C)cc2)cc1 | > 43.4
94 | Cc1ccc(/C=N/NC(=O)c2ccc3nc[nH]c3c2)o1 | > 40.2
95 | CCOC(=O)C1CCN(C(=O)CSc2nc3ncccc3[nH]2)CC1 | 51.5 (≈ 148 µM)
96 | CC1CN(S(=O)(=O)c2cccc(C(=O)N3CCC(C(N)=O)CC3)c2)CC(C)O1 (stereo unspecified) | > 61.4

Row | Compound | solubility kinetic [µg/mL]
97 | Nc1nc(C2CCOCC2)cs1 | > 27.6
98 | O=C(COc1ccccc1[N+](=O)[O-])OCC(=O)c1ccc(Br)s1 | 59.9 (≈ 150 µM)
99 | CCc1ccc(C(=O)CN2C(=O)NC(C)(c3ccc(C)cc3)C2=O)cc1 (stereo unspecified) | 2.1 (≈ 5.99 µM)
100 | COc1cc2ncnc(Nc3ccc4c(c3)OCO4)c2cc1OC | 10.1 (≈ 31 µM)
101 | Cc1ccc(S(=O)(=O)CC(=O)c2ccc([N+](=O)[O-])cc2)cc1 | 9.1 (≈ 28.5 µM)
102 | COc1ccccc1OCC(=O)Nc1cc(S(=O)(=O)N2CCOCC2)ccc1N1CCCCC1 | 3.1 (≈ 6.33 µM)
103 | CN(O)/C=N/C(=S)Nc1ccc(Cl)cc1Cl | 38.4 (≈ 138 µM)
104 | COc1ccc(C(=O)NCC(=O)Nc2cccc(S(=O)(=O)N3CCCC3)c2)cc1 | 60.1 (≈ 144 µM)
105 | Cc1cc(C)n2nc(C(=O)OCC(=O)Nc3ccc(C)c(F)c3)nc2n1 | > 53.6
106 | CCN(CC)C(=O)COc1ccc2c(-c3ccccc3)cc(=O)oc2c1 | 40.7 (≈ 116 µM)
107 | COc1ccc(S(=O)(=O)N2CCN(CC(=O)N3CCOCC3)CC2)cc1OC | > 62
108 | CC(C)(C)c1ccc(OCCCN2CCCC2)cc1 | 28.6 (≈ 109 µM)
109 | O=C(NCCO)C(=O)Nc1cc2c3c(c1)CCN3C(=O)CC2 | > 45.5
110 | CSc1ncc(C(=O)NCCCc2ccccc2)c(C)n1 | 43 (≈ 143 µM)
111 | O=C(Nc1nc2c(s1)CN(Cc1ccccc1)CC2)C1CCC1 | 40 (≈ 122 µM)
112 | N/C(=N\OC(=O)c1ccc([N+](=O)[O-])cc1)c1ccc(Br)cc1 | < 0.3
113 | CS(=O)(=O)Cc1ccc(C(=O)N2CCN(C(=O)c3cccs3)CC2)cc1 | > 58.9
114 | CCCC(=O)Nc1sc(C)c(C)c1C#N | 13.6 (≈ 61.2 µM)
115 | CCOc1cccc(CNc2ccc(O)cc2)c1OCc1ccc(Cl)cc1 | > 57.6
116 | Cc1cc(C)cc(N(CC(=O)N2CCCCCC2)S(C)(=O)=O)c1 | 48.5 (≈ 143 µM)
